One compound from patent publication US9834535B2, “Sulfamate derivative compounds for use in treating or alleviating pain” (Bio-Pharm Solutions Co., Ltd., priority 2013, dated 2017) can be followed below.

SMILES strings stand for the structures.

The subject of assay [1] is Post operation-induced pain model. The experiment in a line: Antiallodynic activity on post operative-induced pain model (von Frey). Type of assay: in vivo, Sprague-Dawley rats. The settings on record: ip; rat, intraperitoneal, von Frey, 0.5 h. The protocol: Male Sprague-Dawley rats′(Orient Bio, Korea), 300˜320 g, total of 201 rats were used (details in Table 7). Rats were habituated at least 3 clays before surgery and free access to food and water (room temperature and humidity were maintained at 24±2° C. and 50±10%, respectively). The process of performing the post-operation model's surgery was adapted from Brennan et al (1996). At first, rats with allodynia (threshold valueless than 8 g) were excluded in Pre-von Frey Test. During the post-operation surgery, rats were anesthetized under gaseous anesthesia with 2% isoflurane. Rats were laid face down on a plate fixed at 37° C. to prevent against hypothermia. The ipsilateral plantar aspect (left side) of the hind paw was prepared in a sterile manner with a 10% povidone-iodine solution. […]
For efficacy measure, the threshold value of group C was assigned 100% efficacy, and the percentage of the threshold values of group A compared to group C (for each different dose level) were calculated as the efficacies. Base on these efficacy values, ED50 was calculated using log fitting. […]
For pain threshold test, all animals were placed in a stainless steel meshed chamber and habituated for 30 min in the test box. The tactile sensitivity of the ipsilateral hind paw was measured using the up-and-down method (Dixon, 1980) with seven von Frey monofilaments (0.4, 1, 2, 4, 6, 8, and 15 g) using 3 trials. […]

Assay [2] has as its system acetic acid-induced writhes (abdominal constriction). As to the kind of experiment: Writhing test (0.6% acetic acid). The class given is in vivo, ICR mice. The settings on record: mouse, oral, 0.5 h; read-out: Writ htest: ED50. The protocol:
To examine the pain relief effect of the sulfamate derivative compounds, a writhing test was conducted in general pain animal model referring to Fischer, L. G. et al. (2008).
ICR mice (male, 24-28 g; Orient Bio, Korea) were habituated before test in test room for 1 hour. Animals were fasted 2 hr, before administration of compounds. Compounds was orally administered at the close of 20 mg/kg, 10 ul/g, bw (n=3˜5/group). All compounds were dissolved in a vehicle of 30% (v/v) PEG 400 or 20% (v/v) Tween 80. The control group was treated the vehicle without compounds.
[…] Animals were habituated in the cage for 5 min. 5 min after habituation, the number of writhes (abdominal constriction) for 15 min was counted referring to Korzeniewska-Rybicka, I. et al. (1998) and compared with that of a control.

For assay [3], the system named is SNL model. As to the kind of experiment: Antiallodynic activity on Chung model (SNL, spinal nerve ligation; von Frey). The class given is in vivo, Sprague-Dawley rats. The settings on record: rat, oral, von Frey, 1 h. The protocol: Male. Sprague-Dawley rats (200-220 g, Orient Bio, Korea) were habituated for 1 week before the experiment and allowed free access to food and water throughout the experimentation. Room temperature and humidity were maintained at 24±2° C. and 50±10%, respectively. Neuropathic surgery (SNL, Spinal nerve ligation) model was clone as described in Kim and Chung (1992). Briefly, animal under gaseous anesthesia with isoflurane a 4:4 flow ratio of NO2. The left lumber spinal nerve L5 and L6 were isolated and tightly ligated with 4-0 silk thread. The wound was treated with a gentamicin antibiotics solution (4 mg/kg, 4 ul/g, bw), and the wound muscle was closed with cat cut chrom 4/0 thread and skin was closed dafilon 4/0 tread. Sham controls were prepared in the same manner as the spinal nerves were exposed, but no ligated L5 and L6 nerves. But, vehicle controls were identical to SNL model, except for administration of vehicles.
Tactile sensitivity (Mechanical allodynia) was evaluated using von Frey monofilaments before and after treatment and animals were used withdrawal threshold value was less than 4 g. One week after surgery, SNL-operated animals (n=4˜6), sham-operated animals (n=4˜10) and vehicle-operated animals (n=4˜13) were tested for tactile sensitivity with von Frey monofilaments 3 trials in each animal. All Animals were placed in a stainless steel mashed chamber and habituated for 30 min in the test box. The tactile sensitivity for ipsilateral hind paw was measured using the up-and-down method (Dixon, 1980) with seven von Frey monofilaments (0.4, 1, 2, 4, 6, 8, and 15 g) to 3 trials. Tactile sensitivity test was followed by Dixon's method (Dixon, 1980). The 50% paw withdrawal threshold for each paw was calculated using the following formula: [Xth] log=[vFr] log+ky where [vFr] is the force of the last von Frey used, k=0.2249 which is the average interval (in log units) between the von Frey monofilaments, and y is a value that depends upon the pattern of withdrawal responses (Dixon, 1980).
All animals were fasted 18 h before the administration of the compounds. The antiallodynic effect of the compounds were evaluated at the various dose (n=5˜6), orally administrated in a volume of 5 ul/g, bw in a vehicle of 30% (v/v) PEG 400 or 20% (v/v) Tween 80 or Saline. […]
The relative values compared to the sham group (% control) were calculated and shown in Table 5, which show an antiallodynic effect of the test compounds on SNL model in rats.

For the compound `CC1(C)O[C@@H](COS(N)(=O)=O)[C@H](c2ccccc2Cl)O1` [Example 2, ((4S,5S)-5-(2-chlorophenyl)-2,2-dimethyl-1,3-dioxolan-4-yl)methyl sulfamate], the ED50 was determined as 1.8 mg/kg in assay [1], 28.4 mg/kg in assay [2] and 18.2 mg/kg in assay [3].
